Results published in PMC2836207 (Journal of medicinal chemistry, 2009).

Molecular target: MDA-MB-231 cells (Homo sapiens, UniProt P05556+P26006)
Experiment: on-bead whole cell binding assay
Type: cell-based
Conditions: cell-growth-on-bead assay

MDA-MB-231 cells, sequence (P26006 33-1051): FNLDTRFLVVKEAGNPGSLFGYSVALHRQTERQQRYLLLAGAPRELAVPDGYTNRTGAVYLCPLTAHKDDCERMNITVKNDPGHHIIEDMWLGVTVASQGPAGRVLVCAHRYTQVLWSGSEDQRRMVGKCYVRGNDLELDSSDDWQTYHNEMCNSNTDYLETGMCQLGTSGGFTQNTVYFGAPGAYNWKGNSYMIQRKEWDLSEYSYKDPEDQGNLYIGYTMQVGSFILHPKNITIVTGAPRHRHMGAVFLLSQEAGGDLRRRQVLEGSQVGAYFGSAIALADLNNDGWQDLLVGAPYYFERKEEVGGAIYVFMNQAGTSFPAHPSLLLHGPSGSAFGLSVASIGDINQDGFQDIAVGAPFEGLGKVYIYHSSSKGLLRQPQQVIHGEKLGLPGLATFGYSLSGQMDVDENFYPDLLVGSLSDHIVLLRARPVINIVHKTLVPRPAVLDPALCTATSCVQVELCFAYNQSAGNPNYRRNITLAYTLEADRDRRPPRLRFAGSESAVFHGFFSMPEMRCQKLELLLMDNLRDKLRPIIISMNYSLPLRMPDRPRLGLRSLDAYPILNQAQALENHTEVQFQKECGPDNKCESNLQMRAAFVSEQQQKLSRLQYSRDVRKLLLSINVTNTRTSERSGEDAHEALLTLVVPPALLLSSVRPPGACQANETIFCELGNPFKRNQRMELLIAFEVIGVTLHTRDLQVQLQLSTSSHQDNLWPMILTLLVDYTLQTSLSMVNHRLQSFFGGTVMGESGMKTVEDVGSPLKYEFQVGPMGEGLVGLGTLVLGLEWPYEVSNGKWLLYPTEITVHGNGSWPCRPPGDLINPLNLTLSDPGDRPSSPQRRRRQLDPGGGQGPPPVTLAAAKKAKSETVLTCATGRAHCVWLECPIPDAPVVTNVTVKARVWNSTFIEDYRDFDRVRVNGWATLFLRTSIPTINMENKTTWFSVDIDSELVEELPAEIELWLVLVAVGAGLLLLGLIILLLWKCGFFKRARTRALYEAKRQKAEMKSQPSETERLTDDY
MDA-MB-231 cells, sequence (P05556 21-798): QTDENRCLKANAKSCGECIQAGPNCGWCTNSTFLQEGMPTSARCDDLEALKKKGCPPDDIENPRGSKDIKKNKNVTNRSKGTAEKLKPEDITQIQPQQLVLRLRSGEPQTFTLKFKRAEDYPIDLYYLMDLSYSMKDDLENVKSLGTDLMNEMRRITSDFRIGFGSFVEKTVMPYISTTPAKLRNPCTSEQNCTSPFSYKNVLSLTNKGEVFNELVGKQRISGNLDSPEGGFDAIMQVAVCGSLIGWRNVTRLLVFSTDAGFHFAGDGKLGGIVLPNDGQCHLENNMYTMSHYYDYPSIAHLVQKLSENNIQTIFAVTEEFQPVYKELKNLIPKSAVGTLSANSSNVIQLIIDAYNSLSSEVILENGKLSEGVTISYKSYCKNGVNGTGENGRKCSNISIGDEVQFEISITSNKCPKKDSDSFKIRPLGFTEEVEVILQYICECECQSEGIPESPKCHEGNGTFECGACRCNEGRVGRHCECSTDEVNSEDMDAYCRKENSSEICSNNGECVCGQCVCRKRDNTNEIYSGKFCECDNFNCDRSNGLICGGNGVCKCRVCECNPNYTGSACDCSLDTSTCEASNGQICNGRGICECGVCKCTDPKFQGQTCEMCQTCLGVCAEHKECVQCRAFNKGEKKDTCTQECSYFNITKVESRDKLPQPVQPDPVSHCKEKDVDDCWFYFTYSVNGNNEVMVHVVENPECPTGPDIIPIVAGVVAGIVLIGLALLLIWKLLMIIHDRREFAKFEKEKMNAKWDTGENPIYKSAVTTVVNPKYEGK

cell binding to peptide bead: shown to bind
Substance: cEGLGEWc
